Experimental data as given in ChEMBL document CHEMBL1135524, “2-Ethyl and 2-ethylidene analogues of 1alpha,25-dihydroxy-19-norvitamin D(3): synthesis, conformational analysis, biological activities, and docking to the modeled rVDR ligand binding domain” (2002).
Values joined by “and” are separate entries in the source; they are usually repeats but may differ in a detail not shown here. Equal values may be shown once.

How the values were obtained:
Rattus norvegicus [1] = organism: Rattus norvegicus; experiment: Bone calcium mobilization in rats maintained on a very low calcium diet at a dose 260 (pmol); format: functional, organism-based
Rattus norvegicus [2] = organism: Rattus norvegicus; experiment: Intestinal calcium transport at dose 130 (pmol); format: functional
Rattus norvegicus [3] = organism: Rattus norvegicus; experiment: Intestinal calcium transport at dose 260 (pmol); format: functional
HL-60 [4] = experiment: Ratio of average ED50 to 1-alpha,25-(OH)2D3 ED50 for differentiation assay; format: functional, Homo sapiens
HL-60 [5] = experiment: Ability to induce differentiation of human promyelocyte HL-60 cells into monocytes.; format: functional; conditions: read-out: ED50 (the source's name)
Rattus norvegicus [6] = organism: Rattus norvegicus; experiment: (§1) Bone calcium mobilization in rats maintained on a very low calcium diet at a dose 130 (pmol); format: functional, organism-based
[7] = molecular target: T1, Vitamin D3 receptor (Sus scrofa) (UniProt A3RGC1); experiment: Binding affinity for porcine intestinal Vitamin D3 receptor (VDR)
T1 sequence (whole entry): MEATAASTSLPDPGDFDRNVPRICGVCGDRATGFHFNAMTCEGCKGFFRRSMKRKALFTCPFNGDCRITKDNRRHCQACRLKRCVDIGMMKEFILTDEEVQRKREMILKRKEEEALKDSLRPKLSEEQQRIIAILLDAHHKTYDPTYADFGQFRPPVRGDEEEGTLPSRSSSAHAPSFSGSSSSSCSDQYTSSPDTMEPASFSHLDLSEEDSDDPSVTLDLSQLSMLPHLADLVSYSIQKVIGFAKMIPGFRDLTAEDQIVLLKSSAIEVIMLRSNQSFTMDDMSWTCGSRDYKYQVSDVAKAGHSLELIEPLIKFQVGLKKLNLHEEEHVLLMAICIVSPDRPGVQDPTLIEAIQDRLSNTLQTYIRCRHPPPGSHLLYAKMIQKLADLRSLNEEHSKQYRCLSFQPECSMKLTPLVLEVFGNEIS

Rattus norvegicus [8] = organism: Rattus norvegicus; experiment: as §1; format: functional, organism-based; remark: listed apart in the source

Row | Structure (SMILES) | EC50 (HL-60 [5]) [nM] | Serum Ca2+ (Rattus norvegicus [1]) | Ca2+ transport (Rattus norvegicus [2]) | Ca2+ transport (Rattus norvegicus [3]) | Activity ratio (HL-60 [4]) | also measured
1 | CCC1[C@H](O)CC(=C/C=C2\CCC[C@]3(C)[C@@H]([C@@H](C)CCCC(C)(C)O)CC[C@@H]23)C[C@H]1O (some centres undefined) [listing 1 of 3 here] |  | 5.6 |  |  |  | 
2 | CC=C1[C@H](O)CC(=C/C=C2\CCC[C@]3(C)[C@@H]([C@@H](C)CCCC(C)(C)O)CC[C@@H]23)C[C@H]1O [listing 1 of 3 here] | 0.15 |  | 6.7 | 6.6 | 0.06 | 
3 | CC=C1[C@H](O)CC(=C/C=C2\CCC[C@]3(C)[C@@H]([C@H](C)CCCC(C)(C)O)CC[C@@H]23)C[C@H]1O [listing 1 of 3 here] |  | 4.5 and 4.4 |  |  |  | Serum Ca2+ (Rattus norvegicus [6]): 5.2 and 4.2
4 | CC=C1[C@H](O)CC(=C/C=C2\CCC[C@]3(C)[C@@H]([C@@H](C)CCCC(C)(C)O)CC[C@@H]23)C[C@H]1O [listing 2 of 3 here] |  |  | 5.8 | 9 | 0.09 | EC50 (HL-60 [5]; Homo sapiens, HL-60): 0.22 nM
5 | CC=C1[C@H](O)CC(=C/C=C2\CCC[C@]3(C)[C@@H]([C@@H](C)CCCC(C)(C)O)CC[C@@H]23)C[C@H]1O [listing 3 of 3 here] |  | 8.2 and 4.4 |  |  |  | Serum Ca2+ (Rattus norvegicus [6]): 12.1 and 5.1; ED50 [7]: 0.28 nM and 0.5 nM
6 | CC=C1[C@H](O)CC(=C/C=C2\CCC[C@]3(C)[C@@H]([C@H](C)CCCC(C)(C)O)CC[C@@H]23)C[C@H]1O [listing 3 of 3 here] |  |  | 6.8 | 5 | 0.8 | EC50 (HL-60 [5]; Homo sapiens, HL-60): 2 nM
7 | C=C1/C(=C\C=C2/CCC[C@]3(C)[C@@H]([C@H](C)CCCC(C)(C)O)CC[C@@H]23)C[C@@H](O)C[C@@H]1O [CALCITRIOL] |  | 5.8 (2×) and 6.4 (2×) | 5.5 and 4.9 and 5.2 | 6.5 and 5.9 and 6 |  | Serum Ca2+ (Rattus norvegicus [6]): 5.1; Serum Ca2+ (Rattus norvegicus [8]): 5.2 and 5.7
8 | CCC1[C@H](O)CC(=C/C=C2\CCC[C@]3(C)[C@@H]([C@H](C)CCCC(C)(C)O)CC[C@@H]23)C[C@H]1O (some centres undefined) [listing 2 of 3 here] |  | 5 and 5.1 |  |  |  | 

Further lines, with some results ahead:

Row | EC50 (HL-60 [5]) [nM] | Structure (SMILES) | Serum Ca2+ (Rattus norvegicus [1]) | Ca2+ transport (Rattus norvegicus [2]) | Ca2+ transport (Rattus norvegicus [3]) | Activity ratio (HL-60 [4]) | also measured
9 | 0.13 | CCC1[C@H](O)CC(=C/C=C2\CCC[C@]3(C)[C@@H]([C@@H](C)CCCC(C)(C)O)CC[C@@H]23)C[C@H]1O (some centres undefined) [listing 2 of 3 here] |  |  |  | 0.05 | 
10 | 4 | CC=C1[C@H](O)CC(=C/C=C2\CCC[C@]3(C)[C@@H]([C@H](C)CCCC(C)(C)O)CC[C@@H]23)C[C@H]1O [listing 2 of 3 here] |  | 5.7 | 4.4 | 1.6 | 
11 | 6.3 | CCC1[C@H](O)CC(=C/C=C2\CCC[C@]3(C)[C@@H]([C@@H](C)CCCC(C)(C)O)CC[C@@H]23)C[C@H]1O (some centres undefined) [listing 3 of 3 here] |  |  | 4.1 | 2.3 | 
12 | 0.46 | CCC1[C@H](O)CC(=C/C=C2\CCC[C@]3(C)[C@@H]([C@H](C)CCCC(C)(C)O)CC[C@@H]23)C[C@H]1O (some centres undefined) [listing 1 of 3 here] |  |  | 4 | 0.17 | 
13 | 12 | CCC1[C@H](O)CC(=C/C=C2\CCC[C@]3(C)[C@@H]([C@H](C)CCCC(C)(C)O)CC[C@@H]23)C[C@H]1O (some centres undefined) [listing 3 of 3 here] |  |  | 3.7 | 4.4 | 
